Measurements published in PubChem BioAssay (NCI).
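Dose response: 5 concentrations. Exposure: 48 h. Format: 96-well plates. Endpoint: linear interpolation; highest concentration if not reached. Abbreviation: GI50, concentration required for 50% inhibition of growth. TGI marks complete inhibition of growth.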

How the values were obtained:
Assay in all cases: growth of human tumour cells (NCI), 48 h
[1] = system: HT29 colon
[2] = system: NCI-H23 lung
[3] = system: SF-268 CNS
[4] = system: UACC-257 melanoma
[5] = system: SNB-19 CNS
[6] = system: IGROV1 ovarian
[7] = system: A498 renal
[8] = system: T-47D breast
[9] = system: COLO 205 colon
[10] = system: K-562 leukemia
[11] = system: HOP-62 NSCLC
[12] = system: HCT-15 colon
[13] = system: SK-OV-3 ovarian
[14] = system: M14 melanoma
[15] = system: SF-295 CNS
[16] = system: OVCAR-8 ovarian
[17] = system: TK-10 renal
[18] = system: LOX IMVI melanoma
[19] = system: RPMI-8226 leukemia
[20] = system: NCI-H460 lung
[21] = system: SK-MEL-5 melanoma
[22] = system: MDA-MB-435
[23] = system: CAKI-1 renal
[24] = system: SR leukemia
[25] = system: MOLT-4 leukemia
[26] = system: EKVX NSCLC
[27] = system: UO-31 renal
[28] = system: DU-145 prostate
[29] = system: BT-549 breast
[30] = system: NCI-H522 lung
[31] = system: MCF7 breast
[32] = system: HS 578T breast
[33] = system: OVCAR-5 ovarian
[34] = system: MDA-N
[35] = system: MALME-3M melanoma
[36] = system: HCC-2998 colon
[37] = system: CCRF-CEM leukemia
[38] = system: SW-620 colon
[39] = system: MDA-MB-231 breast
[40] = system: OVCAR-3 ovarian
[41] = system: 786-0 renal
[42] = system: NCI-H226 lung
[43] = system: U251 CNS
[44] = system: HOP-92 NSCLC
[45] = system: OVCAR-4 ovarian
[46] = system: UACC-62 melanoma
[47] = system: ACHN renal
[48] = system: HCT-116 colon
[49] = system: KM12 colon
[50] = system: SF-539 CNS
[51] = system: A549 NSCLC
[52] = system: SK-MEL-28 melanoma
[53] = system: NCI/ADR-RES ovarian
[54] = system: SN12C renal
[55] = system: PC-3 prostate
[56] = system: SK-MEL-2 melanoma
[57] = system: HL-60(TB) leukemia
[58] = system: SNB-75 CNS

## N#CCN1c2ccccc2CCC1Cl (centres undefined)
[1]
  TGI: > 10 µM
[2]
  TGI: > 10 µM
[3]
  TGI: > 10 µM
[4]
  TGI: > 10 µM
[5]
  TGI: > 10 µM
[6]
  TGI: > 10 µM
[7]
  TGI: > 10 µM
[8]
  TGI: > 10 µM
[9]
  TGI: > 10 µM
[10]
  TGI: > 10 µM
[11]
  TGI: > 10 µM
[12]
  TGI: > 10 µM
[13]
  TGI: > 10 µM
[14]
  TGI: > 10 µM
[15]
  TGI: > 10 µM
[16]
  TGI: > 10 µM
[17]
  TGI: > 10 µM
[18]
  TGI: > 10 µM
[19]
  TGI: > 10 µM
[20]
  TGI: > 10 µM
[21]
  TGI: > 10 µM
[22]
  TGI: > 10 µM
[23]
  TGI: > 10 µM
[24]
  TGI: > 10 µM
[25]
  TGI: > 10 µM
[26]
  TGI: > 10 µM
[27]
  TGI: > 10 µM
[28]
  TGI: > 10 µM
[29]
  TGI: > 10 µM
[30]
  TGI: > 10 µM
[31]
  TGI: > 10 µM
[32]
  TGI: > 10 µM
[33]
  TGI: > 10 µM
[34]
  TGI: > 10 µM
[35]
  TGI: > 10 µM
[36]
  TGI: > 10 µM
[37]
  TGI: > 10 µM
[38]
  TGI: > 10 µM
[39]
  TGI: > 10 µM
[40]
  TGI: > 10 µM
[41]
  TGI: > 10 µM
[42]
  TGI: > 10 µM
[43]
  TGI: > 10 µM
[44]
  TGI: > 10 µM
[45]
  TGI: > 10 µM
[46]
  TGI: > 10 µM
[47]
  TGI: > 10 µM
[48]
  TGI: > 10 µM
[49]
  TGI: > 10 µM
[50]
  TGI: > 10 µM
[51]
  TGI: > 10 µM
[52]
  TGI: > 10 µM
[53]
  TGI: > 10 µM
[54]
  TGI: > 10 µM
[55]
  TGI: > 10 µM

## CCC(Cc1cnc2nc(N)nc(N)c2n1)c1ccc(C(=O)NC(CCC(=O)O)C(=O)O)cc1 (centres undefined)
[1]
  TGI: > 100 µM
[2]
  TGI: > 100 µM
[3]
  TGI: > 100 µM
[4]
  TGI: > 100 µM
[5]
  GI50: 0.0134 µM
  TGI: > 100 µM
[7]
  TGI: > 100 µM
[8]
  TGI: > 100 µM
[9]
  TGI: > 100 µM
[10]
  TGI: > 100 µM
[11]
  TGI: > 100 µM
[56]
  GI50: > 100 µM
  TGI: > 100 µM
[12]
  TGI: > 100 µM
[14]
  GI50: 34.5 µM
  TGI: > 100 µM
[15]
  TGI: > 100 µM
[16]
  TGI: > 100 µM
[17]
  TGI: > 100 µM
[18]
  TGI: > 100 µM
[20]
  TGI: > 100 µM
[21]
  TGI: > 100 µM
[22]
  TGI: > 100 µM
[23]
  TGI: > 100 µM
[24]
  TGI: > 100 µM
[25]
  TGI: > 100 µM
[26]
  GI50: 0.0196 µM
  TGI: > 100 µM
[57]
  TGI: > 100 µM
[27]
  TGI: > 100 µM
[28]
  TGI: > 100 µM
[29]
  TGI: > 100 µM
[30]
  TGI: > 100 µM
[31]
  TGI: > 100 µM
[32]
  TGI: > 100 µM
[33]
  TGI: > 100 µM
[34]
  TGI: > 100 µM
[37]
  TGI: > 100 µM
[38]
  TGI: > 100 µM
[39]
  GI50: > 100 µM
  TGI: > 100 µM
[40]
  GI50: > 100 µM
  TGI: > 100 µM
[58]
  TGI: > 100 µM
[41]
  TGI: > 100 µM
[42]
  GI50: > 100 µM
  TGI: > 100 µM
[45]
  GI50: > 100 µM
  TGI: > 100 µM
[47]
  TGI: > 100 µM
[48]
  TGI: > 100 µM
[49]
  TGI: > 100 µM
[50]
  TGI: 1.28 µM
[51]
  TGI: > 100 µM
[52]
  GI50: > 100 µM
  TGI: > 100 µM
[53]
  TGI: > 100 µM
[54]
  TGI: > 100 µM
[55]
  TGI: > 100 µM
